In PubChem BioAssay (NCI):
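Following 48 hours of exposure in 96-well plates, responses at five concentrations were used to interpolate endpoints linearly. Definition used: TGI = concentration required for complete inhibition of growth.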

Assays:
Experiment in all cases: NCI tumour cell line growth inhibition, 48 h
CAKI-1 renal = system: CAKI-1 renal
MCF7 breast = system: MCF7 breast
RPMI-8226 leukemia = system: RPMI-8226 leukemia
SW-620 colon = system: SW-620 colon
KM20L2 colon = system: KM20L2 colon
M19-MEL melanoma = system: M19-MEL melanoma
SN12K1 renal = system: SN12K1 renal
RXF 393 renal = system: RXF 393 renal
SF-539 CNS = system: SF-539 CNS
OVCAR-3 ovarian = system: OVCAR-3 ovarian
UO-31 renal = system: UO-31 renal
NCI-H23 lung = system: NCI-H23 lung
NCI-H226 lung = system: NCI-H226 lung
SK-MEL-28 melanoma = system: SK-MEL-28 melanoma
NCI-H460 lung = system: NCI-H460 lung
P388/ADR leukemia = system: P388/ADR leukemia
TK-10 renal = system: TK-10 renal
SR leukemia = system: SR leukemia
ACHN renal = system: ACHN renal
LXFL 529 NSCLC = system: LXFL 529 NSCLC

Row | Compound | TGI (CAKI-1 renal) [µM] | TGI (MCF7 breast) [µM] | TGI (RPMI-8226 leukemia) [µM] | TGI (SW-620 colon) [µM] | TGI (KM20L2 colon) [µM] | TGI (M19-MEL melanoma) [µM] | TGI (SN12K1 renal) [µM] | TGI (RXF 393 renal) [µM] | TGI (SF-539 CNS) [µM] | TGI (OVCAR-3 ovarian) [µM] | TGI (UO-31 renal) [µM] | TGI (NCI-H23 lung) [µM] | TGI (NCI-H226 lung) [µM] | TGI (SK-MEL-28 melanoma) [µM] | TGI (NCI-H460 lung) [µM] | TGI (P388/ADR leukemia) [µM] | TGI (TK-10 renal) [µM] | TGI (SR leukemia) [µM] | TGI (ACHN renal) [µM] | TGI (LXFL 529 NSCLC) [µM]
1 | CC1C(=O)C(C)C(c2cccs2)N(N=O)C1c1cccs1 (stereo not given) | > 100 | > 100 | > 100 | > 100 | > 100 | > 100 | > 100 | > 100 | > 100 | > 100 | > 100 | > 100 | > 100 | > 100 | > 100 | > 100 |  |  |  | 
2 | CCCCC(NC(=O)CC)C(=O)O (stereo not given) | > 100 | > 100 | > 100 | > 100 | > 100 | > 100 | > 100 |  | > 100 | > 100 | > 100 | > 100 | > 100 | > 100 | > 100 | > 100 |  |  |  | 
3 | CN1C[C@H]2[C@@H](C1=O)[C@H](c1ccc([N+](=O)[O-])cc1)ON2C | > 100 | > 100 | > 100 | > 100 |  |  |  |  |  | > 100 | > 100 | > 100 | > 100 | > 100 | > 100 |  | > 100 | > 100 | > 100 | 
4 | COc1cc(C2C(Cl)C(=O)N2NC(=O)c2ccc(NC(C)=O)cc2)cc(Br)c1O (stereo not given) |  |  | > 100 | > 100 |  | > 100 |  |  | > 100 | > 100 | > 100 | > 100 | > 100 | > 100 | > 100 |  | > 100 | > 100 | > 100 | > 100
5 | COc1ccc2c(C)cc(N/N=C/c3sccc3C)nc2c1 |  | 26.1 | 26.6 | 69.4 |  |  |  | 32 | 27.5 | 10.6 | 54.8 | 33.1 | 25.9 | 35.8 |  |  | 43.3 | 87.3 | > 100 | 
6 | COc1cc(C2c3cc4c(cc3OC3(O)COC(=O)C23)OCO4)cc(OC)c1OC (stereo not given) | > 100 |  | > 100 | > 100 | 54.3 | > 100 |  | 91.5 | 79.3 | > 100 | > 100 | > 100 | > 100 |  | > 100 |  | > 100 | 59.1 | > 100 | > 100
7 | Nc1ccc2cc(S(=O)(=O)O)cc(O)c2c1N=Nc1ccc(NC(=O)Nc2ccc(N=Nc3c(N)ccc4cc(S(=O)(=O)O)cc(O)c34)c(S(=O)(=O)O)c2)cc1S(=O)(=O)O |  | > 100 |  | > 100 |  | > 100 | > 100 | > 100 | > 100 | > 100 | > 100 | > 100 | > 100 | > 100 | > 100 | > 100 |  |  |  | 
8 | CCOc1ccc(C2=C(Cl)c3cc(OC)c(OC)cc3C2Cl)cc1 (stereo not given) | > 100 |  | 73 | > 100 | > 100 | > 100 |  |  | > 100 | > 100 | > 100 | > 100 | > 100 | > 100 | > 100 |  | > 100 |  | > 100 | > 100
9 | O=C1ON(Cc2ccccc2)C(c2ccccc2)N1c1ccccc1 (stereo not given) |  | > 100 | > 100 | > 100 | > 100 | > 100 | > 100 | > 100 | > 100 | > 100 | > 100 | > 100 | > 100 | > 100 | > 100 | > 100 |  |  |  | 
